The molecules below were run against Urokinase-type plasminogen activator (Homo sapiens, UniProt P00749) (assay: Inhibition of human uPA using Z-Gly-Gly-Arg-AMC as substrate after 30 mins by fluorescence assay).
Work on C[C@H](N)C(=O)N[C@H]1CSCc2cc3cc(c2)CSC[C@@H](C(=O)NCC(=O)O)NC(=O)[C@@H]2CCCN2C(=O)CNC(=O)CNC(=O)[C@H](CCCNC(=N)N)NC(=O)CNC(=O)[C@H](CCCNC(=N)N)NC(=O)[C@H](CSC3)NC(=O)[C@H](CC(=O)O)NC(=O)[C@H]([C@@H](C)O)NC(=O)[C@H](C)NC(=O)[C@H](C)NC(=O)[C@H](Cc2cnc[nH]2)NC(=O)[C@H](CC(N)=O)NC1=O yielded a Ki of 0.71 µM. Molecule C[C@H](N)C(=O)N[C@H]1CSCc2cc3cc(c2)CSC[C@@H](C(=O)NCC(=O)O)NC(=O)[C@@H]2CCCN2C(=O)[C@H](Cc2ccccc2)NC(=O)[C@H](CCCNC(=N)N)NC(=O)[C@H](C)NC(=O)[C@H]([C@@H](C)O)NC(=O)[C@H](CSC3)NC(=O)[C@H](CC(=O)O)NC(=O)[C@H](CO)NC(=O)[C@H](Cc2cnc[nH]2)NC(=O)[C@H](CCCCN)NC1=O has a Ki of 26.8 µM. Molecule CC(C)C[C@@H]1NC(=O)[C@H](C(C)C)NC(=O)[C@H](CCC(N)=O)NC(=O)[C@H]([C@@H](C)O)NC(=O)[C@H](C)NC(=O)[C@@H]2CCCN2C(=O)[C@@H]2CSCc3cc(cc(c3)CSC[C@@H](C(=O)NCC(=O)O)NC1=O)CSC[C@H](NC(=O)[C@H](C)N)C(=O)N[C@@H]([C@@H](C)O)C(=O)N[C@@H](C)C(=O)N[C@@H](CCCNC(=N)N)C(=O)N[C@@H]([C@@H](C)O)C(=O)N2 has a Ki of 48.7 µM. Molecule CC(C)C[C@@H]1NC(=O)[C@@H](NC(=O)[C@H](C)N)CSCc2cc3cc(c2)CSC[C@@H](C(=O)NCC(=O)O)NC(=O)[C@H](CO)NC(=O)[C@@H]2CCCN2C(=O)[C@H](CCCNC(=N)N)NC(=O)[C@H](CCCNC(=N)N)NC(=O)[C@H](CC(N)=O)NC(=O)[C@H](CCC(=O)O)NC(=O)[C@H](CSC3)NC(=O)CNC(=O)[C@H](CCCNC(=N)N)NC(=O)[C@H](CCC(=O)O)NC(=O)CNC(=O)[C@H](CCC(N)=O)NC1=O has a Ki of 4.77 µM. CSCC[C@@H]1NC(=O)[C@H]([C@@H](C)O)NC(=O)[C@H](Cc2ccccc2)NC(=O)[C@H](CCCCN)NC(=O)[C@@H]2CSCc3cc(cc(c3)CSC[C@@H](C(=O)NCC(=O)O)NC1=O)CSC[C@H](NC(=O)[C@H](C)N)C(=O)N[C@@H](CCCNC(=N)N)C(=O)NCC(=O)NCC(=O)N2 was tested, and the Ki was 23.5 µM. CC(C)C[C@@H]1NC(=O)[C@H](CO)NC(=O)[C@H](Cc2ccccc2)NC(=O)[C@H](CCCCN)NC(=O)[C@H](Cc2c[nH]c3ccccc23)NC(=O)[C@H](CC(N)=O)NC(=O)[C@@H](NC(=O)[C@H](C)N)CSCc2cc3cc(c2)CSC[C@H](NC1=O)C(=O)N[C@@H](CCC(=O)O)C(=O)N[C@@H]([C@@H](C)O)C(=O)N[C@@H](CCC(N)=O)C(=O)N[C@@H](CCCNC(=N)N)C(=O)N[C@@H](CC(N)=O)C(=O)N[C@@H](CCC(N)=O)C(=O)N[C@H](C(=O)NCC(=O)O)CSC3 was tested, and the Ki was 1.48 µM. CSCC[C@@H]1NC(=O)[C@H](CCC(N)=O)NC(=O)[C@H](CO)NC(=O)[C@H](CO)NC(=O)[C@@H]2CCCN2C(=O)[C@H](CO)NC(=O)[C@@H]2CSCc3cc(cc(c3)CSC[C@@H](C(=O)NCC(=O)O)NC1=O)CSC[C@H](NC(=O)[C@H](C)N)C(=O)N[C@@H](CC(N)=O)C(=O)N[C@@H](CO)C(=O)N[C@@H](CCCNC(=N)N)C(=O)N[C@@H](Cc1ccccc1)C(=O)N[C@@H](C)C(=O)N[C@@H](CC(C)C)C(=O)N2 gave a Ki of 14.8 µM. CC[C@H](C)[C@@H]1NC(=O)[C@H](CO)NC(=O)[C@H](CO)NC(=O)[C@H](CCCNC(=N)N)NC(=O)CNC(=O)[C@H](CCCNC(=N)N)NC(=O)[C@@H]2CSCc3cc(cc(c3)CSC[C@@H](C(=O)NCC(=O)O)NC1=O)CSC[C@H](NC(=O)[C@H](C)N)C(=O)N[C@@H]([C@@H](C)O)C(=O)N[C@@H](CCC(=O)O)C(=O)N[C@@H](Cc1ccccc1)C(=O)N[C@@H](CCC(N)=O)C(=O)N[C@@H]([C@@H](C)O)C(=O)N[C@@H](CC(=O)O)C(=O)N2 showed a Ki of 0.9 µM. Molecule CC(C)C[C@@H]1NC(=O)[C@H]([C@@H](C)O)NC(=O)[C@H](CCCNC(=N)N)NC(=O)[C@H](C)NC(=O)[C@H]([C@@H](C)O)NC(=O)[C@@H]2CSCc3cc(cc(c3)CSC[C@@H](C(=O)NCC(=O)O)NC1=O)CSC[C@H](NC(=O)[C@H](C)N)C(=O)N[C@@H](CCCCN)C(=O)N[C@@H](CCC(N)=O)C(=O)N[C@@H](CO)C(=O)N[C@@H](C(C)C)C(=O)N2 has a Ki of 8.67 µM.
